One data set concerns HeLa. Nature of the data set: In vitro toxicity / growth inhibition (CellTiter-Glo), HeLa. The following applies: Homo sapiens, 48 hr. Type of data set: cell-based. As for the experimental part:
(§1) In order to determine in vitro toxicity of a compound in accordance with the present invention, 18 species of human cancer cell lines (HeLa, cervical cancer cell line; HCT116, SW480, SW620, RKO, colon cancer cell lines; H460, H1299, A549, lung cancer cell lines; MCF7, MDA-MB231, MDA-MB453, breast cancer cell lines; Jurkat, K562, THP1, Ramos, U937, blood cancer cell lines; PC3, DU145, prostate cancer cell lines) were used. Cell lines were cultured in RPMI 1640 culture medium containing penicillin/streptomycin (100 units/mL) and heat-inactivated 5% fetal bovine serum (FBS) under standard culture conditions ([…], 5% CO2, and 100% relative humidity). Thereafter, single cell suspension was obtained via trypsin treatment and pipetting. The suspension was diluted with the same medium such that a cell density is in a range of 8×10^3 to 1.5×10^4 cells/well, and was transferred to a 96-well microtiter plate. After culturing for 24 hours, cell cultures were treated with respective compounds of Examples at various concentrations. […] The above evaluation was carried out according to the methods given in a manufacture's manual. GI50 in Table 1 below refers to a concentration that compounds of Examples cause 50% growth inhibition of various cancer cells.
On the technique in general: In ATP-based viability assays light output follows the ATP content of the culture.

The nature of another data set: Solubility. Type of data set: physicochemical.
Another data set deals with HDAC. Nature of the data set: Inhibition of HDAC activity (fluorometric, HeLa nuclear extract). Type of data set: biochemical, human. The following applies: 30 min room temperature. Here is the method: In order to determine inhibitory activity of a compound in accordance with the present invention on HDAC, evaluation was carried out using an aminocoumarin derivative of ω-acetylated lysine as a substrate for an enzyme. As an enzyme source, a nuclear extract obtained from human cervical cancer cell line HeLa cells was used. The above evaluation was carried out with modification of a method based on the details described in Weegener et al. (2003) Analytical Biochemistry, 321, 203-208. That is, […], […] of nuclear extract and a compound of Example 1 at different concentrations were added and maintained at room temperature for 30 min. Trypsin (10 mg/ml) and Trichostatin A (final concentration: […]) were added to the resulting mixture which was reacted at the same temperature for 20 min, thereby terminating the reaction. The enzyme activity-inhibitory concentration of the compound added was determined using a fluorometer. As a control compound, suberoylanilide hydroxamic acid (SAHA) was used. IC50 in Table 1 below refers to a concentration of the compound that leads to a 50% decrease in activity of HDAC.

In a further data set the test system is HCT116. Nature of the data set: In vitro toxicity / growth inhibition (CellTiter-Glo), HCT116. The following applies: Homo sapiens, HCT-116; HCT116, 48 hr. Type of data set: cell-based. Here is the method: as §1
A further data set deals with Raw cell. The data set is described as follows: Inhibition of LPS-induced NO increases. The following applies: 5 μM compound; for NO: LPS, 18 hours, Griess Reagent; for activity at 5 µM: Mus musculus, 18 h, relative to LPS alone control. Format: cell-based, Mouse. As for the experimental part:
As one of the methods to confirm anti-inflammatory responses, inhibition of increases in nitric oxide (NO) due to lipopolysaccharide (LPS) was carried out. Mouse cell line (Raw cell) was cultured in RPMI 1640 culture medium containing penicillin/streptomycin (100 units/mL) and heat-inactivated 5% fetal bovine serum (FBS) under standard culture conditions ([…], 5% CO2, 37° C., and 100% relative humidity). Test compounds were dissolved in dimethylsulfoxide (DMSO) and were used as a final concentration of 1 to 40 μM. Cells were proliferated to a cell density of 5×10^3 to 2×10^4 cells on a 24-well plate and were treated with the respective compounds (equal amounts of 5 μM) 1 hour prior to treatment with LPS ([…]). The thus-treated cells were cultured for 18 hours, and thereafter the amounts of NO thus produced were measured using Griess Reagent. Measurement was confirmed using an absorption spectrophotometer at 540 nm. The value was expressed as percentage (%) relative to a control in which LPS alone was treated.
In general terms: Nitrite, measured by Griess reagent, commonly stands in for NO production.

Another data set has as its system MCF7. The data set is described as follows: In vitro toxicity / growth inhibition (CellTiter-Glo), MCF7. Format: cell-based. The following applies: Homo sapiens; MCF7, 48 hr. Here is the method:
as §1

The next data set relates to H460. The data set is described as follows: In vitro toxicity / growth inhibition (CellTiter-Glo), H460. Type of data set: cell-based. The following applies: Homo sapiens, NCI-H460; H460, 48 hr. As for the experimental part: as §1

≈ marks a conversion by molar mass, not a printed value.

16 molecules from US8039634B2, “Oxazole hydroxamic acid derivatives and use thereof” (SK Holdings Co., Ltd., priority 2005, dated 2011) can be followed below.

`COc1ccccc1-c1oc(CCCCCCC(=O)NO)nc1-c1ccccc1` [Example 2, 7-[5-(2-methoxy-phenyl)-4-phenyl-oxazol-2-yl]-heptanoic acid hydroxyamide] had a GI50 in the data set on HeLa of 9.33 µM. In addition, the solubility in the data set “Solubility” is 400 µg/mL (≈ 1010 µM). Moreover, the IC50 with HDAC came to 6.61 nM. Growth with HCT116 was halved (GI50) at 8.3 µM. In the data set with Raw cell, this molecule showed an NO of 77.9 μM/L and an activity at 5 µM of 97.8%.
As for `COc1cccc(-c2oc(CCCCCCC(=O)NO)nc2-c2ccccc2)c1` [Example 3, 7-[5-(3-methoxy-phenyl)-4-phenyl-oxazol-2-yl]-heptanoic acid hydroxyamide], the GI50 in the data set with HeLa amounted to 16.9 µM; in the data set on HCT116, 6.5 µM. The same molecule gave a solubility in the data set “Solubility” of 200 µg/mL (≈ 507 µM). The same molecule displayed a half-maximal inhibitory concentration (IC50) with HDAC of 1.58 nM.
Turning to `O=C(CCCCCCc1nc(-c2ccccc2)c(-c2ccccc2)o1)NO` [Example 4, 7-(4,5-diphenyl-oxazol-2-yl)-heptanoic acid hydroxyamide], the GI50 worked out at 2.5 µM in the data set with HeLa, 6.6 µM with MCF7 and 3.5 µM with HCT116. Moreover, the solubility in the data set “Solubility” was determined as 200 µg/mL (≈ 549 µM). In the data set on HDAC, this molecule gave an IC50 of 2 nM.
On to `O=C(CCCCCCc1nc(-c2ccccc2)c(-c2ccccc2F)o1)NO` [Example 5, 7-[5-(2-fluoro-phenyl)-4-phenyl-oxazol-2-yl]-heptanoic acid hydroxyamide], for which the results for the GI50 in the data set with HeLa, in the data set with H460 and with HCT116 were 3.6 µM, 14.2 µM and 10.7 µM, respectively. Moreover, the solubility in “Solubility” is 300 µg/mL (≈ 784 µM). In addition, in the data set with HDAC, half-maximal inhibition (IC50) was put at 1.74 nM. For the same molecule, in the data set on Raw cell, the NO is listed as 69.0 μM/L. The molecule further returned an activity at 5 µM in the data set on Raw cell of 72.7%.
For `O=C(CCCCCCc1nc(-c2ccccc2)c(-c2cccc(F)c2)o1)NO` [Example 6, 7-[5-(3-fluoro-phenyl)-4-phenyl-oxazol-2-yl]-heptanoic acid hydroxyamide], the GI50 came out at 10.7 µM with HeLa, 3.8 µM with MCF7, 15.8 µM in the data set on H460 and 9.5 µM in the data set on HCT116. Besides, in the data set “Solubility”, the concentration in solution (solubility) was 400 µg/mL (≈ 1050 µM). Also, the IC50 in the data set with HDAC came out at 1.48 nM. In the data set on Raw cell, this molecule had an NO of 70.6 μM/L. Moreover, the activity at 5 µM in the data set on Raw cell worked out at 77.1%.
As to `Cc1ccc(-c2oc(CCCCCCC(=O)NO)nc2-c2ccccc2)cc1` [Example 7, 7-(4-phenyl-5-p-tolyl-oxazol-2-yl)-heptanoic acid hydroxyamide], the GI50 in the data set on HeLa is 2.4 µM; in the data set on H460, 9.9 µM; in the data set with HCT116 it was 2.7 µM. This molecule also came in with a solubility in “Solubility” of 200 µg/mL (≈ 528 µM). For the same molecule, the IC50 in the data set on HDAC came out at 2 nM.
For `CCOc1ccc(-c2oc(CCCCCCC(=O)NO)nc2-c2ccccc2)cc1` [Example 8, 7-[5-(4-ethoxy-phenyl)-4-phenyl-oxazol-2-yl]-heptanoic acid hydroxyamide], the GI50 in the data set on HeLa amounted to 1.5 µM; in the data set with H460, 4.2 µM; in the data set on HCT116 it was 1.2 µM. In “Solubility”, this molecule yielded a solubility of 200 µg/mL (≈ 490 µM). The molecule further showed an IC50 with HDAC of 1.2 nM. This molecule also displayed an NO in the data set on Raw cell of 63.7 μM/L. Also, the activity at 5 µM in the data set with Raw cell worked out at 57.7%.
Regarding `O=C(CCCCCCc1nc(-c2ccccc2)c(-c2ccc(F)cc2)o1)NO` [Example 9, 7-[5-(4-fluoro-phenyl)-4-phenyl-oxazol-2-yl]-heptanoic acid hydroxyamide], the GI50 with HeLa turned out to be 14.2 µM; with H460 it was 19.1 µM; with HCT116, 5.9 µM. The IC50 in the data set with HDAC was determined as 4.97 nM. The NO in the data set with Raw cell was determined as 71.4 μM/L. The molecule further came in with an activity at 5 µM in the data set with Raw cell of 79.4%.
`COc1ccc(-c2nc(CCCCCCC(=O)NO)oc2-c2ccc(OC)cc2)cc1` [Example 10, 7-[4,5-bis-(4-methoxy-phenyl)-oxazol-2-yl]-heptanoic acid hydroxyamide]: the GI50 in the data set on HeLa was determined as 3 µM; with MCF7, 0.8 µM; with H460, 9.2 µM; in the data set on HCT116, 2.4 µM. This molecule gave a solubility in the data set “Solubility” of 200 µg/mL (≈ 471 µM). In the data set on HDAC, this molecule displayed a 50% inhibitory concentration (IC50) of 0.47 nM.
Consider `COc1ccc(-c2oc(CCCCCCC(=O)NO)nc2-c2ccccc2OC)cc1` [Example 11, 7-[4-(2-methoxy-phenyl)-5-(4-methoxy-phenyl)-oxazol-2-yl]-heptanoic acid hydroxyamide], for which the GI50 was 1.2 µM in the data set with HeLa, 10.2 µM in the data set with H460 and 2.4 µM in the data set with HCT116. Further, the solubility in the data set “Solubility” stood at 400 µg/mL (≈ 942 µM). For the same molecule, half-maximal inhibition with HDAC (IC50) required 7.24 nM. Besides, in the data set with Raw cell, the NO is on record as 65.0 μM/L. In the data set with Raw cell, the activity at 5 µM is 61.3%.
Consider `CN(C)c1ccc(-c2oc(CCCCCCC(=O)NO)nc2-c2ccccc2)cc1` [Example 12, 7-[5-(4-dimethylamino-phenyl)-4-phenyl-oxazol-2-yl]-heptanoic acid hydroxyamide], for which the GI50 in the data set with HeLa stood at 14.1 µM; with MCF7 it was 6.9 µM; in the data set on H460 it was 19.5 µM; in the data set with HCT116, 9.8 µM. The molecule also gave a solubility in “Solubility” of 700 µg/mL (≈ 1720 µM). This molecule displayed an IC50 in the data set with HDAC of 5.01 nM. Moreover, the NO with Raw cell is 72.9 μM/L. The same molecule showed an activity at 5 µM in the data set with Raw cell of 83.7%.
`O=C(CCCCCCc1nc(-c2ccc(F)cc2)c(-c2cccnc2)o1)NO` [Example 15, 7-[4-(4-fluoro-phenyl)-5-pyridin-3-yl-oxazol-2-yl]-heptanoic acid hydroxyamide]: in the data set on HeLa, the GI50 was 30.1 µM. Besides, the solubility in “Solubility” amounted to 2000 µg/mL (≈ 5220 µM). The molecule also returned an IC50 with HDAC of 38.4 nM. Also, the GI50 in the data set with H460 came to 69 µM. Further, in the data set with Raw cell, the NO is 66.6 μM/L and the activity at 5 µM is 65.8%.
On to `O=C(CCCCCCc1nc(-c2cccc(F)c2)c(-c2cccnc2)o1)NO` [Example 16, 7-[4-(3-fluoro-phenyl)-5-pyridin-3-yl-oxazol-2-yl]-heptanoic acid hydroxyamide], for which, in the data set with HeLa, the GI50 was 20.7 µM. The concentration in solution in the data set “Solubility” (solubility) was 1400 µg/mL (≈ 3650 µM). Also, the IC50 in the data set with HDAC is 32.3 nM. This molecule also registered a GI50 with H460 of 52.3 µM. In the data set with Raw cell, the NO was 63.0 μM/L and the activity at 5 µM stood at 55.7%.
For the molecule `COc1ccc(-c2oc(CCCCCCC(=O)NO)nc2-c2ccncc2)cc1` [Example 18, 7-[5-(4-methoxy-phenyl)-4-pyridin-4-yl-oxazol-2-yl)-heptanoic acid hydroxyamide], the GI50 with HeLa turned out to be 9.1 µM; in the data set on H460 it was 11.7 µM; in the data set with HCT116 it was 3.8 µM. In the data set “Solubility”, this molecule registered a solubility of 900 µg/mL (≈ 2280 µM). The IC50 in the data set on HDAC is 14 nM. This molecule gave an NO with Raw cell of 68.6 μM/L. For the same molecule, the activity at 5 µM in the data set on Raw cell is 71.6%.
For `CCOc1ccc(-c2oc(CCCCCCC(=O)NO)nc2-c2ccncc2)cc1` [Example 19, 7-[5-(4-ethoxy-phenyl)-4-pyridin-4-yl-oxazol-2-yl]-heptanoic acid hydroxyamide], the GI50 turned out to be 2.9 µM with HeLa, 1.1 µM with MCF7, 4.1 µM in the data set on H460 and 4 µM in the data set on HCT116. The solubility in “Solubility” amounted to 700 µg/mL (≈ 1710 µM). The molecule also displayed an IC50 in the data set with HDAC of 0.68 nM.
In the case of `O=C(CCCCCCc1nc(-c2ccccc2)c(-c2ccc(O)cc2)o1)NO` [Example 20, 7-[5-(4-hydroxy-phenyl)-4-phenyl-oxazol-2-yl]-heptanoic acid hydroxyamide], the GI50 with HeLa is 2.4 µM; in the data set on H460, 5.4 µM; in the data set on HCT116, 1.5 µM. Moreover, in “Solubility”, the solubility was 300 µg/mL (≈ 789 µM). In the data set with HDAC, this molecule registered an IC50 of 1.7 nM. Moreover, the NO with Raw cell is listed as 55.9 μM/L. The same molecule showed an activity at 5 µM in the data set with Raw cell of 35.9%.

The GI50 is the concentration giving 50% growth inhibition. A high value points to less potent growth inhibition. A word on the solubility: it is the dissolved amount per volume that the medium holds. A low value points to a poorly soluble substance. As a reminder, the IC50 is the midpoint of a concentration-inhibition curve. A low value points to greater potency.
